Where “and” joins values, the source holds several entries; their conditions need not be identical. Identical values can stand only once. Like-named read-outs stand apart in the source and are kept apart here. Values belong to the compound of their own block, whether it stands above or below them.
What was measured:
[1] = molecular target: T1, geranylgeranyl protein transferase (GGPT) I (Rattus norvegicus, UniProt P53610+Q04631); assay: Inhibition of geranylgeranyl protein transferase I (Ras-CVLL as acceptor); type: biochemical; conditions: for IC50: enzyme inhibition
T1 construct: were partially purified from rat brain by ammonium sulfate fractionation followed by Q-Sepharose
T1 sequence (P53610 whole entry, one chain of several): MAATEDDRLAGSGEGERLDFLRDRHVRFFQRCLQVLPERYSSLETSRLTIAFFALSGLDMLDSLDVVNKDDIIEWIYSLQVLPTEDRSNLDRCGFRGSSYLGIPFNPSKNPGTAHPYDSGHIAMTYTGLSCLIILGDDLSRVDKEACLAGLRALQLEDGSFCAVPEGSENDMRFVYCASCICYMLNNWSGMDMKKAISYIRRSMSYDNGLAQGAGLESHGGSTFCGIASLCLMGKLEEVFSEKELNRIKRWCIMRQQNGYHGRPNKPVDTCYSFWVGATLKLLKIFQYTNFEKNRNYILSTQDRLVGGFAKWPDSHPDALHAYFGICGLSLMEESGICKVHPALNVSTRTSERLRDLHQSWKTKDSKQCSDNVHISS
From the text: 1. In vitro enzyme assays: Inhibition of farnesyl protein transferase and geranylgeranyl protein transferase.
Both farnesyl protein transferase (FPT) and geranylgeranyl protein transferase (GGPT) I were partially purified from rat brain by ammonium sulfate fractionation followed by Q-Sepharose (Pharmacia, Inc.) anion exchange chromatography essentially as described by Yokoyama et al (Yokoyama, K., et al., (1991), A protein geranylgeranyltransferase from bovine brain: Implications for protein prenylation specificity, Proc. Natl. Acad. Sci USA 88: 5302-5306, the disclosure of which is incorporated herein by reference thereto). Human farnesyl protein transferase was also expressed in E. coli, using cDNA clones encoding both the α and β subunits. The methods used were similar to those published (Omer, C. et al., (1993), Characterization of recombinant human farnesyl protein transferase: Cloning, expression, farnesyl diphosphate binding, and functional homology with yeast prenyl-protein transferases, Biochemistry 32:5167-5176). Human farnesyl protein transferase was partially-purified from the soluble protein fraction of E. coli as described above. […] Two forms of val^12-Ha-Ras protein were prepared as substrates for these enzymes, differing in their carboxy terminal sequence. One form terminated in cysteine-valine-leucine-serine (Ras-CVLS) the other in cystein-valine-leucine-leucine (Ras-CVLL). Ras-CVLS is a substrate for the farnesyl protein transferase while Ras-CVLL is a substrate for geranylgeranyl protein transferase I. The cDNAs encoding these proteins were constructed so that the proteins contain an amino-terminal extension of 6 histidine residues. Both proteins were expressed in Escherichia coli and purified using metal chelate affinity chromatography. The radiolabelled isoprenyl pyrophosphate substrates, [^3H]farnesyl pyrophosphate and [3H]geranylgeranyl pyrophosphate, were purchased from DuPont/New England Nuclear.
The geranylgeranyl protein transferase I assay was essentially identical to the farnesyl protein transferase assay described above, with two exceptions: [^3H]geranylgeranylpyrophosphate replaced farnesyl pyrophosphate as the isoprenoid donor and Ras-CVLL was the protein acceptor.

[2] = molecular target: T2, farnesyl protein transferase (FPT), partially purified from rat brain (Rattus norvegicus, UniProt Q02293+Q04631); assay: Inhibition of farnesyl protein transferase (transfer of [3H]farnesyl to Ras-CVLS); type: biochemical; conditions: read-out: FPT IC50
T2 construct: were partially purified from rat brain by ammonium sulfate fractionation followed by Q-Sepharose
T2 sequence (Q02293 whole entry, one chain of several): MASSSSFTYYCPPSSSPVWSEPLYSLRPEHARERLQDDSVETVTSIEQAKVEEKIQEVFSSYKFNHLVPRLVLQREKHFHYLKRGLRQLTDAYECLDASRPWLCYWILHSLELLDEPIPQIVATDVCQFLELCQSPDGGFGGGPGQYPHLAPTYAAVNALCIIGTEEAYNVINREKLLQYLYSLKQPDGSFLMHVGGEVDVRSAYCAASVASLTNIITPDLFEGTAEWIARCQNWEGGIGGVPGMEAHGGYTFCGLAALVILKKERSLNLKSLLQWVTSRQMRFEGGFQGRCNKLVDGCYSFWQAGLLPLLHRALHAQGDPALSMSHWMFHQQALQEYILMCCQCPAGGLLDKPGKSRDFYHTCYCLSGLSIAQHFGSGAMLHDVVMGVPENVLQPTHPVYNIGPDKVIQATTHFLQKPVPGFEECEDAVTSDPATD
Outline: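 Transfer of [3H]farnesyl onto E. coli-expressed, His6-tagged Ras-CVLS was measured after 30 min at room temperature. Radiolabelled Ras was TCA-precipitated on ice and filter-harvested, and inhibition was expressed as percent of DMSO control.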

[3] = system: Normal human HEPM fibroblasts; assay: Cell Mat Assay: density of mat cells (mIC50); type: cell-based
Outline: (§1)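 Serial compound dilutions added 24 h after planting T24-BAG4 cells onto a mat of normal cells, then 14 d colony growth; monolayers glutaraldehyde-fixed and tumor cells X-Gal stained. tIC50 and mIC50 from microscope counts of colonies, cells per colony and mat cell density.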

[4] = system: Ras-CVLS processing in COS monkey kidney cells; assay: COS cell assay: Ras-CVLS processing (Western blot); type: cell-based; conditions: COS cells; for IC50: read-out: Inhibition of Ras Processing IC50
Protocol: 2. […] Effect of farnesyl protein transferase inhibitors on Ras processing and on disordered cell growth induced by transforming Ras. COS monkey kidney cells were transfected by electroporation with the plasmid pSV-SPORT (Gibco/BRL) containing a cDNA insert encoding either Ras-CVLS or Ras-CVLL, leading to transient overexpression of a Ras substrate for either farnesyl protein transferase or geranylgeranyl protein transferase I, respectively (see above). […] After 24 hours, media was removed and fresh media containing the appropriate drugs was re-added. 48 hours after electroporation cells were examined under the microscope to monitor disordered cell growth induced by transforming Ras. Cells expressing transforming Ras become more rounded and refractile and overgrow the monolayer, reminiscent of the transformed phenotype. […] Cells were lysed by homogenization and cell debris was removed by centrifugation at 2000×g for 10 min. Cellular protein was precipitated by addition of ice-cold trichloroacetic acid and redissolved in 100 μl of SDS-electrophoresis sample buffer. […] Proteins resolved on the gels were electroblotted onto nitrocellulose membranes for immunodetection. […] E., et al., (1982), Monoclonal antibodies to the p21 products of the transforming gene of Harvey murine sarcome virus and of the cellular ras gene family, J. Virol. 43: 294-304), in PBS containing 1% fetal calf serum for one hour at room temperature. After washing, membranes were incubated for one hour at room temperature with a 1:5000 dilution of secondary antibody, rabbit anti-rat IgG conjugated to horseradish peroxidase, in PBS containing 1% fetal calf serum.

[5] = system: T24-BAG4 human bladder carcinoma cells expressing an activated H-ras gene; assay: Cell Mat Assay: tumor cell colony inhibition (tIC50); type: cell-based; conditions: inhibition of tumor cell growth
Outline: as §1

[6] = Ras-CVLS farnesylation, partially purified rat brain FPT

SMILES: O=C(c1ccc(O)c(O)c1)N1CCC(=C2c3ccc(Cl)cc3CCc3cccnc32)CC1 [Example 8]
- IC50 [1]: 42 µM
- IC50 [2, 6]: 2.3 µM
- IC50 ([2]; enzyme inhibition): 2.3 µM

SMILES: O=C(Cc1ccncc1)N1CCC(=C2c3ccc(Br)cc3CCc3cccnc32)CC1 [Example 181]
- IC50 [1]: > 42 µM
- IC50 [2, 6]: 0.23 µM

SMILES: O=C(Cc1ccncc1)N1CCC(=C2c3ccc(Cl)cc3CCc3cc(Br)cnc32)CC1 [Example 246]
- IC50 [1]: > 40 µM
- IC50 ([3]; Homo sapiens, Fibroblast): 50 µM
- IC50 ([3]; listed as 246 (5.121)): > 50 µM
- IC50 [2, 6]: 0.06 µM

SMILES: CC(C)(C(=O)N1CCN(C2c3ccc(Cl)cc3CCc3cc(Br)cnc32)CC1)c1ccc[n+]([O-])c1 (stereo not shown) [Example 352]
- IC50 ([4]; Primates, COS): 2.2 µM
- IC50 ([3]; Homo sapiens, Fibroblast): > 25 µM
- IC50 ([5]; Homo sapiens): 1.6 µM
- IC50 [2, 6]: 0.74 µM and 0.38 µM

SMILES: CC(C)(C(=O)N1CCN(C2c3ccc(Cl)cc3CCc3cc(Br)cnc32)CC1)c1cccnc1 (stereo not shown) [Example 353]
- IC50 ([4]; Primates, COS): 0.9 µM
- IC50 ([3]; Homo sapiens, Fibroblast): > 25 µM
- IC50 ([5]; Homo sapiens): 6.25 µM
- IC50 [2, 6]: 0.76 µM and 0.3 µM

SMILES: O=C(Nc1cccnc1)N1CCC(C2c3ccccc3CCc3cccnc32)CC1 (stereo not shown) [Example 365]
- IC50 [4]: 3.1 µM
- IC50 [3]: > 50 µM
- IC50 [5]: 6.25 µM
- IC50 [2, 6]: 5 µM

SMILES: O=C(Nc1ccncc1)N1CCC(C2c3ccccc3CCc3cccnc32)CC1 (stereo not shown) [Example 366]
- IC50 [4]: 3.3 µM
- IC50 [3]: > 50 µM
- IC50 [5]: 3.1 µM
- IC50 [2, 6]: 4 µM

SMILES: O=C(Nc1ccccc1)N1CCC(C2c3ccccc3CCc3cccnc32)CC1 (stereo not shown) [Example 367]
- IC50 [4]: 6.2 µM
- IC50 [3]: > 50 µM
- IC50 [5]: 6.25 µM
- IC50 [2, 6]: 3.3 µM

SMILES: CN1CCC(CC(=O)N2CCC(C3c4ccc(Cl)cc4CCc4cc(Br)cnc43)CC2)CC1 (stereo not shown) [Example 400-J]
- GGPT inhibition at the concentration in parentheses ([1]; (36) μM): 6 (36)
- IC50 [1]: 1000 µM
- IC50 [2, 6]: 0.14 µM
- IC50 ([2]; enzyme inhibition): 0.14 µM

SMILES: O=C(Cc1cc[n+]([O-])cc1)N1CCC(=C2c3ccc(Cl)cc3CCc3cc(Br)cnc32)CC1 [Example 400-L]
- IC50 [4]: 0.65 µM
- IC50 ([4]; Primates, COS): 0.6 µM
- IC50 [3]: > 12.5 µM
- IC50 ([3]; Homo sapiens, Fibroblast): > 25 µM
- IC50 ([5]; Homo sapiens): < 1.6 µM
- IC50 [5]: < 0.8 µM
- IC50 [2, 6]: 0.095 µM and 0.09 µM
- IC50 ([2]; enzyme inhibition): 0.095 µM and 0.09 µM

SMILES: CC1(C2CCN(C(=O)Cc3ccncc3)CC2)c2ccc(Cl)cc2CCc2cc(Br)cnc21 (stereo not shown) [Example 410-A]
- GGPT inhibition at the concentration in parentheses ([1]; (35) μM): 47 (35)
- IC50 [1]: ~40 µM
- IC50 [2, 6]: 0.086 µM
- IC50 ([2]; enzyme inhibition): 0.086 µM

SMILES: CC1(C2CCN(C(=O)Cc3cc[n+]([O-])cc3)CC2)c2ccc(Cl)cc2CCc2cc(Br)cnc21 (stereo not shown) [Example 410-B]
- GGPT inhibition at the concentration in parentheses ([1]; (35) μM): 21 (35)
- IC50 [1]: 1000 µM
- IC50 [2, 6]: 0.084 µM
- IC50 ([2]; enzyme inhibition): 0.084 µM

SMILES: CC(C)(C(=O)N1CCC(=C2c3ccc(Cl)cc3CCc3cc(Br)cnc32)CC1)c1ccc[n+]([O-])c1 [Example 411-A]
- IC50 ([4]; Primates, COS): 0.7 µM
- IC50 ([3]; Homo sapiens, Fibroblast): > 25 µM
- IC50 ([5]; Homo sapiens): 1.6 µM
- IC50 ([2]; enzyme inhibition): 0.59 µM

SMILES: O=C(Cc1ccncc1)N1CCC(C2c3ccc(Cl)cc3C=Cc3cc([N+](=O)[O-])cnc32)CC1 (stereo not shown) [Example 411-B]
- IC50 ([4]; Primates, COS): 1.8 µM
- IC50 ([3]; Homo sapiens, Fibroblast): > 25 µM
- IC50 ([5]; Homo sapiens): 6.25 µM
- IC50 ([2]; enzyme inhibition): 0.32 µM

SMILES: O=C(Cc1cc[n+]([O-])cc1)N1CCN([C@H]2c3ccc(Cl)cc3CCc3cccnc32)CC1 [Example 425-E]
- IC50 ([4]; Primates, COS): 5 µM
- IC50 ([3]; Homo sapiens, Fibroblast): > 25 µM
- IC50 ([5]; Homo sapiens): 1.6 µM
- IC50 ([2]; enzyme inhibition): 0.49 µM

SMILES: O=C(Cc1cc[n+]([O-])cc1)N1CCN(C2c3ccc(Cl)cc3CCc3c(Cl)ccnc32)CC1 (stereo not shown) [Example 426-A]
- IC50 ([4]; Primates, COS): > 5 µM
- IC50 ([3]; Homo sapiens, Fibroblast): > 25 µM
- IC50 ([5]; Homo sapiens): 6.25 µM
- IC50 ([2]; enzyme inhibition): 0.33 µM

Now from value to compound, other results behind:

- IC50 ([5]; Homo sapiens): 8 µM
- IC50 ([2]; enzyme inhibition): 0.62 µM
SMILES: CC(C)(C(=O)N1CCC(=C2c3ccc(Cl)cc3CCc3cc(Br)cnc32)CC1)c1cc[n+]([O-])cc1 [Example 411-D]
- IC50 ([4]; Primates, COS): 1.6 µM
- IC50 ([3]; Homo sapiens, Fibroblast): > 25 µM

- IC50 ([5]; Homo sapiens): 6.25 µM
- IC50 [5]: 4 µM
- IC50 ([2]; enzyme inhibition): 0.7 µM
SMILES: O=C(Cc1ccc[n+]([O-])c1)N1CCC(=C2c3ccc(Cl)cc3CCc3cc(Br)cnc32)CC1 [Example 411-G]
- IC50 ([4]; Primates, COS): 5.1 µM
- IC50 [3]: > 12.5 µM
- IC50 ([3]; Homo sapiens, Fibroblast): > 25 µM

- GGPT inhibition at the concentration in parentheses ([1]; (42) μM): 3 (42)
- IC50 ([2]; enzyme inhibition): 0.16 µM and 0.17 µM
SMILES: O=C(Cc1cc[n+]([O-])cc1)N1CCC(=C2c3ccc(Cl)cc3CCc3cc(Cl)cnc32)CC1 [Example 411-W]

- IC50 ([5]; Homo sapiens): 18 µM
- IC50 ([2]; enzyme inhibition): 0.32 µM
SMILES: CC(C)(C(=O)N1CCC(=C2c3ccc(Cl)cc3CCc3cc(Br)cnc32)CC1)c1ccncc1 [Example 411]
- Inhibition of Ras Processing at the concentration in parentheses ([4]; (5) μM): 93 (5)
- IC50 ([4]; Primates, COS): ~1 µM
- IC50 ([3]; Homo sapiens, Fibroblast): > 25 µM

- IC50 ([5]; Homo sapiens): 10 µM
- IC50 ([2]; enzyme inhibition): 1.16 µM
SMILES: CCc1cc2c(cc1Cl)C=Cc1cccnc1C2C1CCN(C(=O)Cc2ccncc2)CC1 (stereo not shown) [Example 417]
- IC50 ([4]; Primates, COS): 4 µM
- IC50 ([3]; Homo sapiens, Fibroblast): 18 µM

- IC50 ([5]; Homo sapiens): 25 µM
- IC50 ([2]; enzyme inhibition): 1.85 µM
SMILES: O=C1Cc2cccnc2C(=C2CCN(C(=O)Cc3cc[n+]([O-])cc3)CC2)c2ccc(Cl)cc21 [Example 418]
- IC50 ([4]; Primates, COS): > 10 µM
- IC50 ([3]; Homo sapiens, Fibroblast): > 25 µM

- GGPT inhibition at the concentration in parentheses ([1]; (41) μM): 0 (41)
- IC50 ([2]; enzyme inhibition): < 0.12 µM
SMILES: O=C(Cc1ccncc1)N1CCC(C2c3ccc(Cl)cc3C(=NO)Cc3cccnc32)CC1 (stereo not shown) [Example 419]

- IC50 ([5]; Homo sapiens): 3.1 µM
- IC50 ([2]; enzyme inhibition): 0.39 µM
SMILES: CC(C)(C(=O)N1CCN(C2c3ccc(Cl)cc3CCc3cc(Br)cnc32)CC1)c1cc[n+]([O-])cc1 (stereo not shown) [Example 425-J]
- IC50 ([4]; Primates, COS): 5 µM
- IC50 ([3]; Homo sapiens, Fibroblast): > 25 µM

- IC50 ([5]; Homo sapiens): > 3.1 µM
- IC50 ([2]; enzyme inhibition): 0.45 µM
SMILES: CN1CCC(CC(=O)N2CCN(C3c4ccc(Cl)cc4CCc4c(Cl)ccnc43)CC2)CC1 (stereo not shown) [Example 425-P]
- IC50 ([4]; Primates, COS): 5.7 µM
- IC50 ([3]; Homo sapiens, Fibroblast): 3.1 µM

From patent publication US20030055065A1, “Tricyclic amide and urea compounds useful for inhibition of G-protein function and for treatment of proliferative diseases” (priority 1993, published 2003)
